Data as given in patent publication US20170157301A1, “LEOLIGIN DERIVATIVES AS SMOOTH MUSCLE CELL PROLIFERATION INHIBITORS” (TECHNISCHE UNIVERSITAET WIEN, priority 2014, published 2017).

These compounds were tested on SMCs in relation to ECs (assay: activity ratio: efficiency towards SMCs / efficiency towards ECs). Conditions: activity ratio class; order in Table 1 follows the calculated values.
Type: cell-based
Protocol: For determination of vascular SMC proliferation, 0.5×10^4 viable rat aortic SMCs per well were seeded in SMC growth medium (DMEM/F12 medium with 20% serum, 30 μg/mL Gentamicin and 15 ng/mL Amphotericin) in 96-well plates. 24 h later, the medium was removed, the cells were washed once with SMC starvation medium (DMEM/F12 medium with 0.1% serum, 0.2% BSA, 30 μg/mL Gentamicin and 15 ng/mL Amphotericin) and incubated in starvation medium for further 24 h.
The quiescent cells were then pretreated for 30 min with the test compounds and induced to proliferate with 20 ng/mL platelet-derived growth factor (PDGF). Unstimulated cells were utilized for normalization and estimation of the basal level of proliferation. The final concentration of the solvent vehicle, dimethyl sulfoxide (DMSO), was the same (0.1%) in all wells. 48 h later, the SMC proliferation was quantified by resazurin dye conversion for 2 h as previously described (H. Joa et al., J. Nat. Prod. 74(6), 1513-6 (2011)).
For determination of endothelial cell proliferation, 0.5×10^4 HUVECtert immortalized human umbilical vein endothelial cells (H. B. Schiller et al., Mol. Biol. Cell. 20(3), 745-756 (2009)) were seeded in 96-well plates for 24 h in HUVEC Complete Medium (EBM™ growth medium supplemented with 10% fetal bovine serum, EBM™ SingleQuots (Lonza, Basel, Switzerland), 100 U/mL benzylpenicillin, 100 μg/mL streptomycin, and 1% amphotericin). Afterwards, the medium was exchanged with fresh HUVEC Complete Medium and cells were treated with the indicated compounds for 48 h. After the end of the incubation period, the medium was removed, the cells were washed once with 200 μL/well PBS, and treated with 150 μL HUVEC Complete Medium containing 10 μg/mL resazurin. 2 h later, the fluorescence was measured at a wavelength of 580 nm, with excitation wavelength 535 nm in a 96-well plate reader (Tecan GENios Pro; Tecan Group Ltd., Mannedorf, Switzerland).
In every case, the percentage of viable cells was subtracted from 1, in order to obtain a measure of efficiency of the test compounds towards each particular type of cells, and subsequently, the efficiency quotient towards SMCs and ECs was calculated and taken as the “activity ratio” and thus as a measure of selective efficiency of each test compound towards SMCs in relation to ECs. For example, the synthetic Leoligin with the bio ID 2418 prepared in Comparative Example 27 as compound 10-22 gave the following results:
Due to the usual fluctuations in determining surviving cells, which amount to approximately ±10%, and due to the relatively strong resulting fluctuations in calculating quotients—especially if the inhibitory effect of said novel compounds towards ECs is very poor—said threshold value of 1.50 for the activity ratio, as already mentioned above, was introduced.
In the following, a table listing every compound prepared in examples and comparative Examples for which an activity ratio (a.r.) of >1.0 was determined, is given.
For `COc1cc([C@H]2OC[C@H](Cc3ccc(C(C)(C)C)cc3)[C@@H]2CO)cc(OC)c1OC` [Comparative Example 13, ((2S,3R,4R)-4-(4-(tert-butyl)benzyl)-2-(3,4,5-trimethoxyphenyl)tetrahydrofuran-3-yl)methanol], the a.r. code was “V (1.0 < a.r. < 1.50)”. `C/C=C(/C)C(=O)OC[C@H]1[C@@H](Cc2ccc(C(F)(F)F)cc2)CO[C@@H]1c1ccc(OC)c(OC)c1` [Comparative Example 24, (Z)-((2S,3R,4R)-2-(3,4-dimethoxyphenyl)-4-(4-(trifluoromethyl)benzyl)tetra-hydrofuran-3-yl)methyl 2-methylbut-2-enoate] was tested, and the a.r. code was “V (1.0 < a.r. < 1.50)”. With `C/C=C(/C)C(=O)OC[C@H]1[C@@H](Cc2ccc(OC)c(OC)c2)CO[C@@H]1c1ccc(F)cc1` [Comparative Example 26, (Z)-((2S,3R,4R)-4-(3,4-dimethoxybenzyl)-2-(4-fluorophenyl)tetrahydrofuran-3-yl)methyl 2-methylbut-2-enoate] the a.r. code was “V (1.0 < a.r. < 1.50)”. For `C/C=C(/C)C(=O)OC[C@H]1[C@@H](Cc2ccc(OC)c(OC)c2)CO[C@@H]1c1ccc(OC)cc1` [Comparative Example 28, (Z)-((2S,3R,4R)-4-(3,4-dimethoxybenzyl)-2-(4-methoxyphenyl)tetrahydrofuran-3-yl)methyl 2-methylbut-2-enoate], the a.r. code was “V (1.0 < a.r. < 1.50)”. In the case of `C/C=C(/C)C(=O)OC[C@H]1[C@@H](Cc2ccc(OC)cc2)CO[C@@H]1c1ccccc1` [Comparative Example 29, (Z)-((2S,3R,4R)-4-(4-methoxybenzyl)-2-phenyltetrahydrofuran-3-yl)methyl 2-methylbut-2-enoate], the a.r. code is reported as “V (1.0 < a.r. < 1.50)”. For `C/C=C(/C)C(=O)OC[C@H]1[C@@H](Cc2ccc(OC)cc2)CO[C@@H]1c1ccc(F)cc1` [Comparative Example 30, (Z)-((2S,3R,4R)-2-(4-fluorophenyl)-4-(4-methoxybenzyl)tetrahydrofuran-3-yl)-methyl 2-methylbut-2-enoate], the a.r. code was “V (1.0 < a.r. < 1.50)”. `C/C=C(/C)C(=O)OC[C@H]1[C@@H](Cc2ccccc2)CO[C@@H]1c1cc(OC)c(OC)c(OC)c1` [Comparative Example 31, (Z)-((2S,3R,4R)-4-benzyl-2-(3,4,5-trimethoxyphenyl)tetrahydrofuran-3-yl)-methyl 2-methylbut-2-enoate] was tested, and the a.r. code was “V (1.0 < a.r. < 1.50)”. With `C/C=C(/C)C(=O)OC[C@H]1[C@@H](Cc2ccc(C(F)(F)F)cc2)CO[C@@H]1c1cc(OC)c(OC)c(OC)c1` [Comparative Example 32, (Z)-((2S,3R,4R)-4-(4-(trifluoromethyl)benzyl)-2-(3,4,5-trimethoxyphenyl)-tetrahydrofuran-3-yl)methyl 2-methylbut-2-enoate] the a.r. code was “V (1.0 < a.r. < 1.50)”. In the case of `C/C=C(/C)C(=O)OC[C@H]1[C@@H](Cc2ccc(OC)cc2)CO[C@@H]1c1cc(OC)c(OC)c(OC)c1` [Comparative Example 33, (Z)-((2S,3R,4R)-4-(4-methoxybenzyl)-2-(3,4,5-trimethoxyphenyl)tetrahydro-furan-3-yl)methyl 2-methylbut-2-enoate], the a.r. code is reported as “V (1.0 < a.r. < 1.50)”. For `C/C=C(/C)C(=O)OC[C@H]1[C@@H](Cc2ccc(C)cc2)CO[C@@H]1c1cc(OC)c(OC)c(OC)c1` [Comparative Example 34, (Z)-((2S,3R,4R)-4-(4-methylbenzyl)-2-(3,4,5-trimethoxyphenyl)tetrahydrofuran-3-yl)methyl 2-methylbut-2-enoate], the a.r. code was “V (1.0 < a.r. < 1.50)”. For `C/C=C(\C)C(=O)OC[C@H]1[C@@H](Cc2ccc(OC)c(OC)c2)CO[C@@H]1c1ccc(OC)c(OC)c1` [Comparative Example 35, (E)-((2S,3R,4R)-4-(3,4-dimethoxybenzyl)-2-(3,4-dimethoxyphenyl)tetrahydro-furan-3-yl)methyl 2-methylbut-2-enoate], the a.r. code was “V (1.0 < a.r. < 1.50)”.
